“And” between values parts separate entries of the source, which are not always exact repeats. Identical values can stand only once. Like-named read-outs stand apart in the source and are kept apart here.
Key:
[1] = tested on: proliferative crypt cells, including stem cells and proliferative progenitor cells; type: in vivo, Sprague-Dawley rats; details: rat, on proliferative crypt cells, fitted to plasma citrulline
[2] = tested on: proliferative cells (the stem cells and proliferative progenitors); experiment: Translated and calibrated human system toxicology model; set-up: species or system humans; details: fitted to published villus area data after chemotherapy, value (% RSE)
[3] = rat
[4] = human; cited from earlier work
[5] = cited from earlier work
[6] = rat, fixed to literature value; cited from earlier work
[7] = human; cited from earlier work; remark: listed apart in the source

**Q.** For CCc1c2c(nc3ccc(O)cc13)-c1cc3c(c(=O)n1C2)COC(=O)[C@]3(O)CC [SN‐38, 7‐ethyl‐10‐hydroxy‐camptothecin], which “kkill, cytotoxic rate by SN-38” value [1] is on record?
**A.** Its value is 146 M⁻¹ s⁻¹.

**Q.** What about the “kkill, cytotoxic rate by SN-38” value [2] of the same compound?
**A.** The value was 11.0 1/day/μM and 11.0 (0.0328) 1/day/μM.

**Q.** And the “CLm, clearance of SN-38” value ([3]; after i.p. irinotecan)?
**A.** Its value is 7.73 mL/min/kg.

**Q.** And the “Vm, volume of SN-38” value ([3]; after i.p. irinotecan, % RSE NA)?
**A.** The value was 0.01 L/kg.

**Q.** What about the “Vm, central volume of SN-38” value [4] of the same compound?
**A.** Its value is 200 L.

**Q.** And the “kem, elimination rate constant of SN-38” value [4]?
**A.** Its value is 2.52 h⁻¹.

**Q.** And the “mk12, rate constant from central to peripheral 1 of SN-38” value [4]?
**A.** The value was 2.6 h⁻¹.

**Q.** And the “mk21, rate constant from peripheral 1 to central of SN-38” value [4]?
**A.** Its value is 0.0584 h⁻¹.

**Q.** Which “Vmax, maximum rate of conversion from irinotecan to SN-38” value ([3]; i.p. irinotecan, population TK model estimate) does the source give for CCc1c2c(nc3ccc(OC(=O)N4CCC(N5CCCCC5)CC4)cc13)-c1cc3c(c(=O)n1C2)COC(=O)[C@]3(O)CC [Irinotecan] here?
**A.** Its value is 20.6 nmol/h/kg.

**Q.** And the “Dmaxp, coefficient for maximum irinotecan loss during absorption” value ([3]; i.p., population TK model estimate)?
**A.** The value was 430 mg/kg.

**Q.** And the “ka, absorption rate constant of irinotecan” value ([3]; i.p., % RSE NA)?
**A.** The value was 10 h⁻¹.

**Q.** And the “k12, rate constant from central to peripheral 1 of irinotecan” value [4]?
**A.** The value was 57.8 h⁻¹.

**Q.** What about the “k21, rate constant from peripheral 1 to central of irinotecan” value [4] of the same compound?
**A.** Its value is 2.58 h⁻¹.

**Q.** What about the “k31, rate constant from peripheral 2 to central of irinotecan” value [4] of the same compound?
**A.** The value was 0.0812 h⁻¹.

**Q.** And the “occurrence of ≥grade 3 diarrhea in the BI3W schedule compared with Q3W” value ([5]; 175 mg/m^2 days 1 and 10 every 3 weeks vs 350 mg/m^2 once every 3 weeks)?
**A.** Its value is “significantly higher”.

**Q.** And the “efficacy in both dosing regimens (Q3W and BI3W)” value ([5]; 350 mg/m^2 Q3W vs 175 mg/m^2 BI3W)?
**A.** The value was “similar”.

**Q.** For NC(=O)NCCC[C@H](N)C(=O)O [citrulline], which “kout, elimination rate constant of plasma citrulline” value [6] is on record?
**A.** The value was 8.52 day⁻¹.

**Q.** And the “kout, elimination rate constant of plasma citrulline” value [7]?
**A.** The value was 18.6 day⁻¹.

**Q.** What about the plasma citrulline half-life [7] of the same compound?
**A.** The plasma citrulline half-life was 39 to 68.4 min.
